Laboratory results reported in the CheMixHub ionic liquid set.

Test: xn = mol fraction of the nth substance listed

CCCCCCCC(=O)[O-].c1c[nH+]c[nH]1 + CCCCCCCCO
101.3 kPa
Settings	viscosity [mPa·s]
293.15 K, x2 = 0.4	39.42
293.15 K, x2 = 0.6005	24
298.15 K, x2 = 0.4	33.3
298.15 K, x2 = 0.5007	25.9
298.15 K, x2 = 0.6005	20.3
298.15 K, x2 = 0.8997	9.1
303.15 K, x2 = 0.6005	17.2
308.15 K, x2 = 0.1011	40.69
308.15 K, x2 = 0.6999	11.72
313.15 K, x2 = 0.6005	12.3
318.15 K, x2 = 0.1011	27.68
318.15 K, x2 = 0.799	6.7
318.15 K, x2 = 0.8997	5.38
323.15 K, x2 = 0.1011	22.9
323.15 K, x2 = 0.2991	17.1
323.15 K, x2 = 0.8997	4.82

CC1=CCC(C(C)C)=CC1 + CCCCCCCC[N+](CCCCCCCC)(CCCCCCCC)CCCCCCCC.[Br-] + [Cl-].[Cl-].[Co+2]
Settings	viscosity [mPa·s]
296.1 K, 101.3 kPa, x2 = 0.4, x3 = 0.2	120000

CCCCCCCCn1cc[n+](C)c1C.F[P-](F)(F)(F)(F)F + CCCCCCCC[n+]1ccn(C)c1.F[P-](F)(F)(F)(F)F
100 kPa, x2 = 0.5
Settings	viscosity [mPa·s]
333.15 K	90.3
343.15 K	60.9
353.15 K	44.5

O=C1c2ccccc2C(=O)C1(O)O + CCCC[N+](CCCC)(CCCC)CCCC.O=S(=O)([O-])O
100 kPa, x2 = 0.571
Settings	electrical conductivity [S/m]	viscosity [mPa·s]
293.15 K	2.5e-06	–
298.15 K	7.8e-06	–
303.15 K	2.49e-05	–
308.15 K	6.58e-05	–
313.15 K	0.000153	–
318.15 K	0.000325	–
323.15 K	0.000614	–
328.15 K	0.00109	27000
333.15 K	0.00183	–
343.15 K	–	6500

c1nnn[nH]1 + CCCC[P+](CCCC)(CCCC)CCCC.[Cl-] + [N]=O
303.15 K, 101.3 kPa
Settings	viscosity [mPa·s]
x1 = 0.2439, x2 = 0.2439	3.1
x1 = 0.2518, x2 = 0.2518	4
x1 = 0.2597, x2 = 0.2597	4
x1 = 0.2723, x2 = 0.2723	6
x1 = 0.2867, x2 = 0.2867	9.2

CCCCC(=O)[O-].CC[NH+](CC)CCO + CCCC[n+]1ccn(C)c1.COP(=O)([O-])OC
101 kPa
Settings	viscosity [mPa·s]
278.15 K, x1 = 0.6984	216.8
283.15 K, x1 = 0.4973	226.8
288.15 K, x1 = 0.1018	874
293.15 K, x1 = 0.1018	594
298.15 K, x1 = 0.1952	271.2
298.15 K, x1 = 0.5989	76
298.15 K, x1 = 0.7978	58.54
303.15 K, x1 = 0.1952	199.9
303.15 K, x1 = 0.3029	132
303.15 K, x1 = 1	37.12
308.15 K, x1 = 0.1952	150.4
308.15 K, x1 = 0.5989	46.85
313.15 K, x1 = 0.3029	79.5
313.15 K, x1 = 0.4003	58.57
313.15 K, x1 = 0.5989	37.62
313.15 K, x1 = 0.8868	26.19
318.15 K, x1 = 0.1952	90.1
318.15 K, x1 = 0.4003	47.13
318.15 K, x1 = 0.5989	30.62
318.15 K, x1 = 0.6984	26.67
323.15 K, x1 = 0.7978	19.5
328.15 K, x1 = 0.4973	25.35
328.15 K, x1 = 0.5989	21.04
328.15 K, x1 = 0.6984	18.34
333.15 K, x1 = 0.1018	62.36
333.15 K, x1 = 0.3029	34.47
333.15 K, x1 = 0.4003	26.54
333.15 K, x1 = 0.8868	12.34
333.15 K, x1 = 1	10.94
338.15 K, x1 = 0.1952	38.69
338.15 K, x1 = 0.4973	18.07
338.15 K, x1 = 0.5989	15.08
343.15 K, x1 = 0.4003	19.11
343.15 K, x1 = 0.4973	15.48
343.15 K, x1 = 0.6984	11.27
348.15 K, x1 = 0.5989	11.19
353.15 K, x1 = 0.5989	9.76
358.15 K, x1 = 0.8868	5.91
358.15 K, x1 = 1	5.15
363.15 K, x1 = 0.1018	21.41
363.15 K, x1 = 0.6984	6.56
373.15 K, x1 = 0.4003	8.6
373.15 K, x1 = 1	3.53

CCCC[n+]1ccn(C)c1.COS(=O)(=O)[O-] + CCCC[n+]1ccn(C)c1.F[B-](F)(F)F
101 kPa
Settings	viscosity [mPa·s]
298.15 K, x2 = 0.4358	161.7
298.15 K, x2 = 0.5118	158.9
298.15 K, x2 = 0.6026	146.2
298.15 K, x2 = 0.9447	110.8
299.15 K, x2 = 0	202.9
299.15 K, x2 = 0.1209	181.8
301.15 K, x2 = 0.1209	162.8
301.15 K, x2 = 0.2142	158.7
301.15 K, x2 = 0.4358	136.4
301.15 K, x2 = 0.6934	117
301.15 K, x2 = 0.7813	109.5
302.15 K, x2 = 0	171.4
302.15 K, x2 = 0.3057	144.1
302.15 K, x2 = 0.5412	122.2
302.15 K, x2 = 0.6026	117.5
302.15 K, x2 = 0.648	113.8
303.15 K, x2 = 0.406	127.9
303.15 K, x2 = 0.5118	118.6
304.15 K, x2 = 0.3057	129.6
304.15 K, x2 = 0.5412	109.7
304.15 K, x2 = 0.6934	99.9
305.15 K, x2 = 0.1209	131.1
305.15 K, x2 = 0.2142	127.8
305.15 K, x2 = 0.6026	100.3
305.15 K, x2 = 0.9005	82.8
305.15 K, x2 = 0.9447	78.2
307.15 K, x2 = 0.4358	99.4
307.15 K, x2 = 0.6026	90.9
308.15 K, x2 = 0.1209	112.4
308.15 K, x2 = 0.406	98.7
308.15 K, x2 = 0.9447	68

NC=O + CCCC[n+]1ccn(C)c1.F[B-](F)(F)F
101 kPa
Settings	viscosity [mPa·s]
293.15 K, x2 = 0	3.66
293.15 K, x2 = 0.2758	10.51
293.15 K, x2 = 0.3629	16.75
293.15 K, x2 = 0.5095	31.8
293.15 K, x2 = 0.569	39.6
298.15 K, x2 = 0.2758	9.47
298.15 K, x2 = 0.7588	56.7
298.15 K, x2 = 0.8107	64.8
303.15 K, x2 = 0.4499	17.48
303.15 K, x2 = 0.8107	50.9
303.15 K, x2 = 0.8626	57.3
303.15 K, x2 = 0.9313	66.4
308.15 K, x2 = 0.2758	7.5
308.15 K, x2 = 0.4499	14.74
308.15 K, x2 = 0.9313	51.2
313.15 K, x2 = 0.2054	4.61
313.15 K, x2 = 0.3629	8.75
313.15 K, x2 = 0.4499	11.81
318.15 K, x2 = 0.2758	5.08
318.15 K, x2 = 0.569	14.1
318.15 K, x2 = 0.6639	18.31
318.15 K, x2 = 0.8626	29.35

NCCO + CCCC[n+]1ccn(C)c1.F[P-](F)(F)(F)(F)F
101 kPa, x1 = 1
Settings	electrical conductivity [S/m]	viscosity [mPa·s]
288.15 K	0.00163	31
293.15 K	0.00189	23.7
298.15 K	0.00227	–
303.15 K	0.00272	–
308.15 K	0.00321	–
313.15 K	0.00357	–
318.15 K	0.00622	8.1
323.15 K	0.00689	–

CCCC[n+]1ccn(C)c1.N#C[C-](C#N)C#N + CCCC[n+]1ccn(C)c1.O=S(=O)([N-]S(=O)(=O)C(F)(F)F)C(F)(F)F
viscosity [mPa·s], 100 kPa
Settings	x2 = 0	x2 = 0.252	x2 = 0.501	x2 = 0.751
283.15 K	58.2	65.9	77.3	88.9
288.15 K	44.5	50.6	59.4	68.5
293.15 K	34.9	39.8	46.8	53.9
298.15 K	28	31.9	37.6	43.1
303.15 K	22.9	26.1	30.7	35.2
308.15 K	18.98	21.6	25.4	29.1
313.15 K	15.99	18.22	21.4	24.4
318.15 K	13.66	15.53	18.22	20.7
323.15 K	11.8	13.39	15.72	17.75
328.15 K	10.29	11.66	13.61	15.38
333.15 K	9.06	10.25	11.9	13.44
338.15 K	8.04	9.08	10.54	11.84
343.15 K	7.19	8.1	9.38	10.5
348.15 K	6.47	7.27	8.42	9.39
353.15 K	5.86	6.57	7.55	8.44
358.15 K	5.34	5.97	6.86	7.62
363.15 K	4.88	5.46	6.29	6.93

NCCO + CCCC[n+]1ccn(C)c1.O=[N+]([O-])[O-] + O
Settings	viscosity [mPa·s]
313 K, 100 kPa, x2 = 0, x3 = 0.8878	1.963

CC[n+]1ccn(C)c1.COS(=O)(=O)[O-] + CCCO
viscosity [mPa·s], 101 kPa
Settings	283.15 K	293.15 K	303.15 K	313.15 K	323.15 K
x1 = 0.0562	3.83	3	2.38	1.93	1.58
x1 = 0.1123	5.02	3.88	3.06	2.47	2.02
x1 = 0.2201	8.55	6.43	4.9	3.82	3.15
x1 = 0.3272	12.73	9.53	7.27	5.71	4.62
x1 = 0.4282	19.32	14.17	10.7	8.3	6.6
x1 = 0.5272	29.1	20.65	15.24	11.61	9.06
x1 = 0.6285	40.72	27.29	19.7	14.77	11.43
x1 = 0.7255	56.5	37.58	27.45	20.14	15.3
x1 = 0.8203	82.4	52.7	35.86	26.65	19.78
x1 = 0.9091	104.9	63.6	42.77	30.19	22.2
x1 = 0.954	127.2	77	50.3	35.02	25.63
x1 = 1	141	84.1	57.9	39.54	28.33

CC[n+]1ccn(CCOC)c1.O=S(=O)([O-])C(F)(F)F + CCCO
viscosity [mPa·s], 101 kPa
Settings	x1 = 0.0987	x1 = 0.1999	x1 = 0.2982	x1 = 0.3994	x1 = 0.499	x1 = 0.599	x1 = 0.698	x1 = 0.801	x1 = 0.899	x1 = 1
288.15 K	4.257	6.11	10	14.17	23.2	31.9	45.2	63.3	88.6	121
293.15 K	3.751	4.78	8.54	12.17	19.23	26.22	36.7	50.5	69.1	92.5
298.15 K	3.282	4.18	7.36	10.61	16.22	21.94	30.16	41	55.3	72.5
303.15 K	2.914	3.72	6.41	9.35	13.09	18.61	25.17	33.69	44.8	57.9
308.15 K	2.594	3.59	5.63	8.33	11.23	15.98	21.29	28.1	36.86	47.3
313.15 K	2.321	3.205	4.98	7.49	10.09	13.81	18.34	23.8	30.74	39
318.15 K	2.086	3.097	4.43	6.8	8.6	12	15.84	20.29	25.97	32.59
